PMC9354042, “Discovery of BRAF/HDAC Dual Inhibitors Suppressing Proliferation of Human Colorectal Cancer Cells” (Frontiers in Chemistry, 2022)

How the values were obtained:
HDAC6 = target: T1, HDAC6 (Homo sapiens, UniProt Q9UBN7); assay: HDAC6 fluorescent-based enzymatic activity assay; assay type: biochemical; conditions: Table 1; read-out: Enzymatic IC50 HDAC6
T1 construct: purchased BPS Bioscience
T1 sequence (Q9UBN7 1-1215): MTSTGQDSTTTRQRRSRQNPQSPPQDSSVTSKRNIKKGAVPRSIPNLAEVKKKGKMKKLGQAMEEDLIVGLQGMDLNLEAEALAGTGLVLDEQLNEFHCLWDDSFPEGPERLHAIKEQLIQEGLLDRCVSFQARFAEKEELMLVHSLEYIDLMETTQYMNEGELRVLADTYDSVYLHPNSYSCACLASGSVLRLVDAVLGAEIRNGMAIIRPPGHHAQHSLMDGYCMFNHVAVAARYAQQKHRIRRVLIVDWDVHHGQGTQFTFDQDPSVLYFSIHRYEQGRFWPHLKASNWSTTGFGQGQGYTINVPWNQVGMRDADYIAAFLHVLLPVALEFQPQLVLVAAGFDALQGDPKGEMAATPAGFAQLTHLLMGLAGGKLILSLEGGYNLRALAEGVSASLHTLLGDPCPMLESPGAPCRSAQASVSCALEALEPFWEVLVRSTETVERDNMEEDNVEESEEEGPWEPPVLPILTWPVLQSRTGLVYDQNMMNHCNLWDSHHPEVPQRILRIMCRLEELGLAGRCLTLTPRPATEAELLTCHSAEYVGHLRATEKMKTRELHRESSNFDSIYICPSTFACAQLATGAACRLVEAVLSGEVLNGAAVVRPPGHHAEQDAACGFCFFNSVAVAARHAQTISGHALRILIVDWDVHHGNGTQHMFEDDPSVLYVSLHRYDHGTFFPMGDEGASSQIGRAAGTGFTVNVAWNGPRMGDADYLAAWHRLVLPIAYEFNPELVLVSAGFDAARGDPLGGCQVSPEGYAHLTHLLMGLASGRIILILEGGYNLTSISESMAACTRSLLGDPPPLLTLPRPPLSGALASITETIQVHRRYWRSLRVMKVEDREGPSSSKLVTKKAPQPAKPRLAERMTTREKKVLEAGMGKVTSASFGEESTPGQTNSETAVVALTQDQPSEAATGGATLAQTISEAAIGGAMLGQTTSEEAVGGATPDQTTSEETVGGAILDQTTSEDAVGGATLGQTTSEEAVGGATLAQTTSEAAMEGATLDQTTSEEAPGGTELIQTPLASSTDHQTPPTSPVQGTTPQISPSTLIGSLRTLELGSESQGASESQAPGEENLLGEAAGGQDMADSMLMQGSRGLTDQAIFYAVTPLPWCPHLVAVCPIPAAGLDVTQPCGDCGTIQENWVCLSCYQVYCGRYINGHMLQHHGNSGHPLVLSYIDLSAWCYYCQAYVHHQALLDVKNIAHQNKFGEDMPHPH
Experimental: (§1) The purified recombinant Human HDACs and their corresponding substrates were purchased from BPS Bioscience (BPS Bioscience Inc., United States). The assays were carried out in a 384-well format using the BPS fluorescent–based HDAC activity assay according to the manufacturer’s protocol. In brief, […] of the HDAC reaction mixture was composed of HDAC assay buffer, […] BSA, serial diluted test compounds, appropriate concentration of HDACs, and […] fluorogenic substrate, the mixture was incubated at 37°C for 60 min, and then stopped by the addition of developer containing trypsin and TSA. After 20 min of incubation, the fluorescence was detected at the excitation wavelength of 360 nm and the emission wavelength of 460 nm using the EnVision Multilabel Reader (PerkinElmer Inc., United States). The analytical software, GraphPad Prism 5.0 (GraphPad Software, Inc., United States) was used to generate IC50 value via non-linear regression analysis.

HDAC1 = target: T2, HDAC1 (Homo sapiens, UniProt Q13547); assay: HDAC1 fluorescent-based enzymatic activity assay; assay type: biochemical; conditions: Table 1; read-out: Enzymatic IC50 HDAC1
T2 construct: purchased BPS Bioscience
T2 sequence (Q13547 whole entry): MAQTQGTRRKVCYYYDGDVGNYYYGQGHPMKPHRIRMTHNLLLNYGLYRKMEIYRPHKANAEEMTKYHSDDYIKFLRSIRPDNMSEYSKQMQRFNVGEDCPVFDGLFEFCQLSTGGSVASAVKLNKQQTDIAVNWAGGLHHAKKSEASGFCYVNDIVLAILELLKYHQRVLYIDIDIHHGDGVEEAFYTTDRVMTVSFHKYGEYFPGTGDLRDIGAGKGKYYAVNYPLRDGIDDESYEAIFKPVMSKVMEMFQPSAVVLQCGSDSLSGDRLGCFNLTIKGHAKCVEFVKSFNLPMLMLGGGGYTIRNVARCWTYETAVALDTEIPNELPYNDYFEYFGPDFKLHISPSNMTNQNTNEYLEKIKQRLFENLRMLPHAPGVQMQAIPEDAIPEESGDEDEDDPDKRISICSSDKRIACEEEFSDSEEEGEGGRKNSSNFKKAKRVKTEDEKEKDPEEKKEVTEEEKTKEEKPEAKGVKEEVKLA
Experimental: as §1

HDAC8 = target: T3, HDAC8 (Homo sapiens, UniProt Q9BY41); assay: HDAC8 fluorescent-based enzymatic activity assay; assay type: biochemical; conditions: for fold more potent than 14b against HDAC8: HDAC8 IC50 relative to 14b; for IC50: Supplementary Table 1, read-out: HDAC8 Enzymatic IC50
T3 construct: purchased BPS Bioscience
T3 sequence (Q9BY41 1-377): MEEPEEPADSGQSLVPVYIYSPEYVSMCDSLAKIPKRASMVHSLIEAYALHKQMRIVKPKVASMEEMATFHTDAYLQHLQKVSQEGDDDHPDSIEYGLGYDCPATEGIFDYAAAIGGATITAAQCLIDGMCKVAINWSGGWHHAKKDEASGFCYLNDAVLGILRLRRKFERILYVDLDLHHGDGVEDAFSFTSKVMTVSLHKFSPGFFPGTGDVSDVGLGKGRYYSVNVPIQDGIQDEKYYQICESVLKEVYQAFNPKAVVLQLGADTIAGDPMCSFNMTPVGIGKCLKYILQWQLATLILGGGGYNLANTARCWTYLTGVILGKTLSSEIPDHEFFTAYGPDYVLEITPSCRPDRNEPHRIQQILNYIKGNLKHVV
Experimental: as §1

BRAF^V600E = target: T4, BRAF^V600E (Homo sapiens, UniProt P15056, V600E); assay: BRAF V600E enzymatic activity, FRET-based Z'-Lyte kinase assay; assay type: biochemical
T4 construct: purchased Invitrogen
T4 sequence (P15056 whole entry V600E): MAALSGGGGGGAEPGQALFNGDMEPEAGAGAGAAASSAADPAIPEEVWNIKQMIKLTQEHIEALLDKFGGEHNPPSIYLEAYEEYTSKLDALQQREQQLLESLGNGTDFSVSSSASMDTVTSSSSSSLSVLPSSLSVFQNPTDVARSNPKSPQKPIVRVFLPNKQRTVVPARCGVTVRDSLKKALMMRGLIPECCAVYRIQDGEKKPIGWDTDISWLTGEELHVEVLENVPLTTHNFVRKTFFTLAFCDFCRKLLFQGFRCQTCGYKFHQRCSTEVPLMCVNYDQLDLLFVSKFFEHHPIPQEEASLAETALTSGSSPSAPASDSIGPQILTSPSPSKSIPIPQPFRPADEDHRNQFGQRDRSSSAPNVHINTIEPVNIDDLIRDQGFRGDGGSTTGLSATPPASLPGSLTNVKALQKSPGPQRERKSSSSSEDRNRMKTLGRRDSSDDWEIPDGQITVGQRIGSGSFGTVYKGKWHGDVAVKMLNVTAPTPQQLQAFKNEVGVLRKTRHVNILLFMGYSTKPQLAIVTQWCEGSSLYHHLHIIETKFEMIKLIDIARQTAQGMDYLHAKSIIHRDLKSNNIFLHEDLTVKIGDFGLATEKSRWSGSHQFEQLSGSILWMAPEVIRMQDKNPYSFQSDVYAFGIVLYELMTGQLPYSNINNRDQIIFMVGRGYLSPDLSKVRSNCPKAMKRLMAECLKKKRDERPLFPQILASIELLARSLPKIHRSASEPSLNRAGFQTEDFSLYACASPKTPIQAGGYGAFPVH
Experimental: (§2) The experiments were performed according to the instructions of the manufacturer. […] For each assay, 10 μl kinase reactions were added to 384-well plate, mixed thoroughly, and incubated for 1 hour at room temperature. Then, a 5 μl development solution was added to each well and the plate was incubated for another 1 h at room temperature. Then, a 5 μl stop reagent was loaded to stop the reaction. For the control setting, a 5 μl phospho-peptide solution instead of kinase/peptide mixture was used as 100% phosphorylation control. […] The plate was measured on an EnVision Multilabel Reader (Perkin-Elmer). Curve fitting and data presentations were performed using GraphPad Prism, version 5.0. Every experiment was repeated at least two times.

HCT116 cells = assay: Antiproliferation CCK-8 assay, HCT116; assay type: cell-based; conditions: Homo sapiens, HCT-116; CCK-8, 72 h, HCT116 (wild-type BRAF); means of three independent experiments; read-out: Cellular IC50 HCT116
Experimental: (§3) HCT116 and HT-29 cells were obtained from the Shanghai Cell Bank (Type Culture Collection (TCC), Chinese Academy of Sciences) and cultured in DMEM (10–013-CVR, corning) supplemented with 10% fetal bovine serum (04-001-1A, BI), 1% penicillin/streptomycin (03-031-1B, BI).
(§4) The cells in the logarithmic phase were placed in 96-well plates (∼3000 cells/well) in a complete medium. After incubation overnight, the cells were exposed to the corresponding compounds or vehicle control at the indicated concentration for a further 72 h. Cell proliferation was evaluated using Cell Counting Kit 8 (CCK8, CK04, Dojindo Laboratories, Kumamoto, Japan). OD450 and OD650 were determined using a microplate reader. Absorbance rate (A) for each well was calculated as OD450 −OD650. […] Each IC50 value is expressed as mean ± SD. As is the absorbance rate of the test compound well, Ac is the absorbance rate of the well without either the cell or test compound, and Ab is the absorbance rate of the well with the cell and vehicle control.

BRAF (wild-type) [1] = target: T5, BRAF (wild-type) (Homo sapiens, UniProt P15056); assay: wild-type BRAF enzymatic activity, Z'-Lyte kinase assay; assay type: biochemical; conditions: wild-type BRAF kinase; read-out: BRAF^wt enzymatic IC50
T5 construct: purchased Invitrogen
T5 sequence (P15056 whole entry): as the sequence (P15056 whole entry V600E) above, with E600V counted along it
Experimental: as §2

BRAF (wild-type) [2] = assay: as above; assay type: biochemical; conditions: ratio of enzymatic IC50
Experimental: as §2

HT-29 cells = assay: Antiproliferation CCK-8 assay, HT-29; assay type: cell-based; conditions: Homo sapiens; CCK-8, 72 h, HT-29 (BRAF^V600E); means of three independent experiments; read-out: Cellular IC50 HT-29
Experimental: as §3, §4

[3] = test system: Ac-histone H3, Ac-α-tubulin, p-ERK in HCT116 cells; assay: Western blot analysis of HDAC and RAF pathway in HCT116 cells; assay type: cell-based, human; conditions: 0.12-10 μM, 6 h; for phosphorylation of ERK (p-ERK): HCT116 cells (wild-type BRAF, K-RAS G13D); for acetylated histone H3 (Ac-histone H3) / acetylated α-tubulin (Ac-α-tubulin): HCT116 cells
Experimental: (§5) FIGURE 3 Characterization of dual inhibition of HDAC and RAF pathway. Western blot analysis of 14b in HCT116 cells (A) and in HT-29 cells (B). Cells were treated with 0 μM, 0.12 μM, 0.37 μM, 1.1 μM, 3.3 μM, and 10 μM of drugs and incubated for 6 h. The cell lysis was subjected to Western blot analysis.
(§6) The cells were treated with various concentrations of 14b for 6 h. Then, the cells were lysed using 1×SDS sample lysis buffer (CST recommended) with protease and phosphatase inhibitors. Cell lysates were loaded and electrophoresed onto 8–12% SDS-PAGE gel, and then the separated proteins were transferred to a PVDF film. The film was blocked with 5% BSA (Sigma-Aldrich, St. Louis, MO, United States) in a TBS solution containing 0.5% Tween-20 for 4 h at room temperature, then incubated with the corresponding primary antibody (1:1000–1:200) overnight at 4°C. After washing with TBST, HRP-conjugated secondary antibody was incubated for 2 h. The protein signals were visualized by the ECL Western Blotting Detection Kit (Thermo Scientific, Grand Island, NY, United States), and detected with Amersham Imager 600 system (GE, Boston, MA, United States).

[4] = test system: Ac-histone H3, Ac-α-tubulin, p-ERK in HT-29 cells; assay: Western blot analysis of HDAC and RAF pathway in HT-29 cells; assay type: cell-based, human; conditions: 0.12-10 μM, 6 h
Experimental: as §5, §6

Compound	IC50 (HDAC6) [nM]	IC50 (HDAC1) [nM]	fold more potent than 14b against HDAC8 (HDAC8) [fold]	IC50 (HDAC8) [nM]	IC50 (BRAF^V600E) [nM]	IC50 (HCT116 cells) [nM]	IC50 (BRAF (wild-type) [1]) [nM]	selectivity of BRAF^V600E over wild-type BRAF (BRAF (wild-type) [2])	IC50 (HT-29 cells) [nM]	phosphorylation of ERK (p-ERK) [3]	acetylated histone H3 (Ac-histone H3) [3]	acetylated α-tubulin (Ac-α-tubulin) [3]	acetylated histone H3 (Ac-histone H3) [4]	acetylated α-tubulin (Ac-α-tubulin) [4]	phosphorylation of ERK (p-ERK) [4]	also measured
O=C(CCCCCCNc1nccc(-c2sc(-c3ccccc3)nc2-c2cccc(NS(=O)(=O)c3c(F)cccc3F)c2F)n1)NO [14j, 7-{[4-(4-(3-(2,6-Difluorophenylsulfonamido)-2-Fluorophenyl)-2-Phenylthiazol-5-yl)Pyrimidin-2-yl]Amino}-N-Hydroxyheptanamide]	140	15.6	3.4	876	5.14	1080	3.86	slightly more potent against wild-type BARF	950							
CC(C)(C)c1nc(-c2cccc(NS(=O)(=O)c3ccccc3)c2F)c(-c2ccnc(NCCCCCCC(=O)NO)n2)s1 [21c, 7-{[4-(2-(Tert-Butyl)-4-(2-Fluoro-3-(Phenylsulfonamido)Phenyl)Thiazol-5-yl)Pyrimidin-2-yl]Amino}-N-Hydroxyheptanamide]	101	474	4.8	623	1.26	2060	2.86	about 2 fold	110							
CC(C)(C)c1nc(-c2cccc(NS(=O)(=O)c3c(F)cccc3F)c2F)c(-c2ccnc(N)n2)s1 [Dabrafenib, dabrafenib]						> 10000			210	paradoxically induced	had little impact	had little impact	had little impact	had little impact	reduced	phosphorylation of ERK (p-ERK) ([3]; listed as dabrafenib): causes paradoxical activation of ERK; phosphorylation of ERK (p-ERK) ([4]; listed as dabrafenib): reduced the phosphorylation of ERK
O=C(CCCCCCC(=O)Nc1ccccc1)NO [Vorinostat, vorinostat]										had little impact	dose-dependently induced	dose-dependently induced	dose-dependently induced	dose-dependently induced	had little impact	acetylated histone H3 (Ac-histone H3) ([3]; listed as vorinostat): upregulated; acetylated α-tubulin (Ac-α-tubulin) ([3]; listed as vorinostat): upregulated; acetylated histone H3 (Ac-histone H3) ([4]; listed as vorinostat): upregulated; acetylated α-tubulin (Ac-α-tubulin) ([4]; listed as vorinostat): upregulated
